In patent US9744142B2, “Formulations of volatile anesthetics and methods of use for reducing inflammation” (Board of Regents, The University of Texas Systems, priority 2009, dated 2017):

Assay: Isoflurane remaining in uncapped vials over time, determined by weighing (volatility)
Type: physicochemical
Conditions: uncapped vial
Experimental: In the Examples that follow, the stability of isoflurane in the described compositions was determined in two ways. First, the compositions were examined for the presence of phase separation at the macroscopic level. Secondly, isoflurane content of the compositions was determined by weighing the remaining isoflurane in the composition when they were left uncapped over time. Briefly, glass vials were filled with 5-10 ml of the composition vehicle and then weighed; one of them received only vehicle (i.e., no isoflurane) and served as control. The other vials received varying amounts of isoflurane. They were left uncapped in the hood. Over time, the vials were weighed to see if the isoflurane stayed in the composition or had evaporated. The amount evaporated over time in the vehicle control was subtracted from that in the isoflurane-containing composition.
The pure form of isoflurane is a volatile anesthetic. In order to assess the volatility of isoflurane, two vials received the indicated amounts of pure form isoflurane. The vials were placed in the chemical fume hood and left uncapped. The vials were weighed at the indicated times to determine the amount of evaporated isoflurane. As it is shown in the table below 0.7893 g isoflurane was evaporated within 3 hours, while 3.4825 g isoflurane took approximately 8 hrs to evaporate completely. These amounts of isoflurane are similar to the amounts of isoflurane that were used to prepare the isoflurane compositions in the Examples that follow.

time until isoflurane was evaporated (pure isoflurane 0.7893 g): ≤ 3 h
time to evaporate completely (pure isoflurane 3.4825 g): approximately 8 hrs
7 h (pure isoflurane 3.4825 g, 7 h, remaining iso as in the neighbouring columns): 13
8 h (pure isoflurane 3.4825 g, 8 h, remaining iso as in the neighbouring columns): 3
Structure (SMILES): FC(F)OC(Cl)C(F)(F)F (stereo not shown) [isoflurane]
